Test results as given in PubChem BioAssay AID330 (DTP/NCI, 2004).
Several values for one entry are separate records, joined by “and”; a condition that tells them apart may be missing. Equal values may be shown once. Inconclusive results and toxic doses are left out.

Test system: P388 leukemia ip, CD2F1 mice, survival T/C
Test: NCI In Vivo Anticancer Drug Screen. Data for tumor model P388 Leukemia (intraperitoneal) in CD2F1 (CDF1) mice
Details: endpoint: median survival time, higher = longer survival
Method in brief: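 Mice carrying the transplanted tumor received test compound or vehicle. Survival was recorded in each group, and the value is the treated-group measurement divided by that of the vehicle-treated control group.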

[1] = dose: 60.0 mg/kg/injection, schedule: Q01DX005 (ip), vehicle: saline with Tween-80
[2] = dose: 120.0 mg/kg/injection, schedule: Q01DX005 (ip), vehicle: saline with Tween-80
[3] = dose: 240.0 mg/kg/injection, schedule: Q01DX005 (ip), vehicle: saline with Tween-80
[4] = dose: 25.0 mg/kg/injection, schedule: Q01DX001 (ip), vehicle: Klucel (hydroxypropylcellulose) (HPC)
[5] = dose: 50.0 mg/kg/injection, schedule: Q01DX001 (ip), vehicle: Klucel (hydroxypropylcellulose) (HPC)
[6] = dose: 100.0 mg/kg/injection, schedule: Q04DX003 (ip), vehicle: saline
[7] = dose: 200.0 mg/kg/injection, schedule: Q04DX003 (ip), vehicle: saline
[8] = dose: 50.0 mg/kg/injection, schedule: Q01DX005 (ip), vehicle: Klucel + Tween-80
[9] = dose: 100.0 mg/kg/injection, schedule: Q01DX009 (ip), vehicle: Klucel (hydroxypropylcellulose) (HPC)
[10] = dose: 50.0 mg/kg/injection, schedule: Q01DX009 (ip), vehicle: saline with Tween-80
[11] = dose: 100.0 mg/kg/injection, schedule: Q01DX009 (ip), vehicle: saline with Tween-80
[12] = dose: 200.0 mg/kg/injection, schedule: Q01DX009 (ip), vehicle: saline with Tween-80
[13] = dose: 400.0 mg/kg/injection, schedule: Q01DX009 (ip), vehicle: saline with Tween-80
[14] = dose: 25.0 mg/kg/injection, schedule: Q01DX009 (ip), vehicle: other
[15] = dose: 50.0 mg/kg/injection, schedule: Q01DX009 (ip), vehicle: other
[16] = dose: 100.0 mg/kg/injection, schedule: Q01DX009 (ip), vehicle: other
[17] = dose: 200.0 mg/kg/injection, schedule: Q01DX009 (ip), vehicle: other

CN1c2ccc(Br)c[c]2[Sn]([CH3])([CH3])[c]2cc(Br)ccc21
T/C [1]: 99 % of control | T/C [2]: 100 % of control | T/C [3]: 104 % of control

COC(=O)c1nnn(-c2ccc(Cl)cc2C)c1N
T/C [1]: 96 % of control | T/C [2]: 97 % of control | T/C [3]: 91 % of control

CC1(c2ccccc2)CCCC(C#N)C1=N (centres undefined)
T/C (dose: 12.5 mg/kg/injection, schedule: Q01DX001 (ip), vehicle: Klucel (hydroxypropylcellulose) (HPC)): 106 % of control | T/C [4]: 100 % of control | T/C [5]: 103 % of control

CCCCCCCNN=NCC(C)C(C)CC (centres undefined)
T/C [6]: 95 % of control | T/C [7]: 95 % of control | T/C (dose: 400.0 mg/kg/injection, schedule: Q04DX003 (ip), vehicle: saline): 97 % of control

COc1ccc(CSC(=S)Nc2ccccc2C(F)(F)F)cc1
T/C (dose: 50.0 mg/kg/injection, schedule: Q01DX009 (ip), vehicle: suspension in saline): 93 % of control | T/C (dose: 100.0 mg/kg/injection, schedule: Q01DX009 (ip), vehicle: suspension in saline): 91 % of control | T/C (dose: 200.0 mg/kg/injection, schedule: Q01DX009 (ip), vehicle: suspension in saline): 92 % of control

CC(=O)Nc1cc2cc(NS(=O)(=O)c3cc(C(F)(F)F)cc(C(F)(F)F)c3)ccc2oc1=O
T/C (dose: 1.5 mg/kg/injection, schedule: Q01DX005 (ip), vehicle: Klucel + Tween-80): 94 % of control | T/C (dose: 3.0 mg/kg/injection, schedule: Q01DX005 (ip), vehicle: Klucel + Tween-80): 99 % of control and 91 % of control | T/C (dose: 6.0 mg/kg/injection, schedule: Q01DX005 (ip), vehicle: Klucel + Tween-80): 96 % of control | T/C (dose: 12.0 mg/kg/injection, schedule: Q01DX005 (ip), vehicle: Klucel + Tween-80): 91 % of control | T/C (dose: 12.5 mg/kg/injection, schedule: Q01DX005 (ip), vehicle: Klucel + Tween-80): 87 % of control | T/C [8]: 95 % of control

CCOC(=O)c1ccc(NC(C)=O)cc1
T/C [9]: 100 % of control | T/C (dose: 200.0 mg/kg/injection, schedule: Q01DX009 (ip), vehicle: Klucel (hydroxypropylcellulose) (HPC)): 107 % of control | T/C (dose: 400.0 mg/kg/injection, schedule: Q01DX009 (ip), vehicle: Klucel (hydroxypropylcellulose) (HPC)): 112 % of control

CCCCCCCCCCCCCCCCCCNCCC#N
T/C (dose: 12.5 mg/kg/injection, schedule: Q01DX009 (ip), vehicle: Klucel (hydroxypropylcellulose) (HPC)): 101 % of control | T/C (dose: 25.0 mg/kg/injection, schedule: Q01DX009 (ip), vehicle: Klucel (hydroxypropylcellulose) (HPC)): 98 % of control and 100 % of control | T/C (dose: 50.0 mg/kg/injection, schedule: Q01DX009 (ip), vehicle: Klucel (hydroxypropylcellulose) (HPC)): 98 % of control and 89 % of control (2×) | T/C [9]: 99 % of control and 87 % of control

C=C1CN(CCc2ccccc2)C(=S)S1
T/C [1]: 101 % of control | T/C [2]: 102 % of control | T/C [3]: 102 % of control

COc1cc2c3c4c(ccc3c1OC)CCCN4CC2
T/C [8]: 99 % of control | T/C (dose: 100.0 mg/kg/injection, schedule: Q01DX005 (ip), vehicle: Klucel + Tween-80): 97 % of control

CC1C(=O)OC23CC(C)(C)C4OC42C(C)CCC13O (centres undefined)
T/C (dose: 0.37 mg/kg/injection, schedule: Q01DX009 (ip), vehicle: saline): 93 % of control | T/C (dose: 0.75 mg/kg/injection, schedule: Q01DX009 (ip), vehicle: saline): 99 % of control | T/C (dose: 1.5 mg/kg/injection, schedule: Q01DX009 (ip), vehicle: saline): 97 % of control | T/C (dose: 3.0 mg/kg/injection, schedule: Q01DX009 (ip), vehicle: saline): 99 % of control

O=c1c2c([nH]c3c1ccc1c(=O)c4c([nH]c13)CCCC4)CCCC2
T/C [10]: 98 % of control | T/C [11]: 96 % of control | T/C [12]: 94 % of control

CCCC(OC(=O)c1ccc([N+](=O)[O-])cc1)C(=O)O (centres undefined)
T/C [4]: 95 % of control | T/C [5]: 105 % of control | T/C (dose: 100.0 mg/kg/injection, schedule: Q01DX001 (ip), vehicle: Klucel (hydroxypropylcellulose) (HPC)): 100 % of control

O=C1c2ccccc2C(O)(C(=O)O)C1(O)CC=C(Cl)Cl (centres undefined)
T/C (dose: 12.5 mg/kg/injection, schedule: Q01DX009 (ip), vehicle: distilled water + Tween-80): 103 % of control | T/C (dose: 25.0 mg/kg/injection, schedule: Q01DX009 (ip), vehicle: distilled water + Tween-80): 99 % of control | T/C (dose: 50.0 mg/kg/injection, schedule: Q01DX009 (ip), vehicle: distilled water + Tween-80): 91 % of control | T/C (dose: 100.0 mg/kg/injection, schedule: Q01DX009 (ip), vehicle: distilled water + Tween-80): 95 % of control | T/C (dose: 200.0 mg/kg/injection, schedule: Q01DX009 (ip), vehicle: distilled water + Tween-80): 91 % of control

O=C(Cc1ccccc1)CC(CC(=O)Cc1ccccc1)c1ccccc1
T/C (dose: 50.0 mg/kg/injection, schedule: Q01DX005 (ip), vehicle: saline with Tween-80): 94 % of control | T/C (dose: 100.0 mg/kg/injection, schedule: Q01DX005 (ip), vehicle: saline with Tween-80): 89 % of control | T/C (dose: 200.0 mg/kg/injection, schedule: Q01DX005 (ip), vehicle: saline with Tween-80): 103 % of control

O=CC1C2C=CCC12 (centres undefined)
T/C [11]: 113 % of control | T/C [12]: 118 % of control | T/C [13]: 113 % of control

COC(=O)C(NC(=O)C(Cc1c[nH]c2ccccc12)NC(=O)OC(C)(C)C)C(C)C (centres undefined)
T/C (dose: 12.5 mg/kg/injection, schedule: Q01DX009 (ip), vehicle: other): 96 % of control | T/C [14]: 90 % of control | T/C [15]: 91 % of control | T/C [16]: 109 % of control | T/C [17]: 114 % of control

CC(C)(C#N)NCCNC(C)(C)C#N
T/C (dose: 6.25 mg/kg/injection, schedule: Q01DX001 (ip), vehicle: saline): 108 % of control | T/C (dose: 12.5 mg/kg/injection, schedule: Q01DX001 (ip), vehicle: saline): 99 % of control

c1ccc2c(c1)ccc1[nH]c3ccc4ccccc4c3c12
T/C (dose: 1.56 mg/kg/injection, schedule: Q01DX005 (ip), vehicle: Klucel (hydroxypropylcellulose) (HPC)): 100 % of control and 109 % of control and 111 % of control | T/C (dose: 3.12 mg/kg/injection, schedule: Q01DX005 (ip), vehicle: Klucel (hydroxypropylcellulose) (HPC)): 107 % of control and 116 % of control and 117 % of control

Nc1nc(=O)n(CCCSc2ccc([N+](=O)[O-])cc2)cc1-c1ccc(Cl)c(Cl)c1
T/C (dose: 60.0 mg/kg/injection, schedule: Q01DX005 (ip), vehicle: Klucel (hydroxypropylcellulose) (HPC)): 87 % of control | T/C (dose: 120.0 mg/kg/injection, schedule: Q01DX005 (ip), vehicle: Klucel (hydroxypropylcellulose) (HPC)): 97 % of control | T/C (dose: 240.0 mg/kg/injection, schedule: Q01DX005 (ip), vehicle: Klucel (hydroxypropylcellulose) (HPC)): 88 % of control

CN1CCC/C1=C/C(=O)c1ccccc1
T/C [6]: 100 % of control | T/C [7]: 111 % of control

CCNC1CC(C)(O)Cc2cc3c(c(O)c21)C(=O)c1c(O)cc2c(c1C3=O)OC1OC2(C)C(O)C(N(C)C)C1O (centres undefined)
T/C (dose: 6.25 mg/kg/injection, schedule: Q01DX009 (ip), vehicle: other): 123 % of control | T/C [14]: 154 % of control | T/C [15]: 120 % of control

c1cc(OCC2CO2)ccc1OCC1CO1 (centres undefined)
T/C (dose: 12.5 mg/kg/injection, schedule: Q01DX009 (ip), vehicle: saline with Tween-80): 95 % of control | T/C (dose: 25.0 mg/kg/injection, schedule: Q01DX009 (ip), vehicle: saline with Tween-80): 96 % of control | T/C [10]: 113 % of control | T/C [11]: 108 % of control and 111 % of control | T/C (dose: 100.0 mg/kg/injection, schedule: Q04DX003 (ip), vehicle: saline sonified): 100 % of control | T/C [12]: 108 % of control | T/C (dose: 200.0 mg/kg/injection, schedule: Q04DX003 (ip), vehicle: saline sonified): 104 % of control | T/C (dose: 264.0 mg/kg/injection, schedule: Q04DX003 (ip), vehicle: saline with Tween-80): 118 % of control | T/C [13]: 112 % of control | T/C (dose: 600.0 mg/kg/injection, schedule: Q04DX003 (ip), vehicle: saline with Tween-80): 113 % of control

OC1CCCCCC2CC12 (centres undefined) (tested in a mixture with another compound)
T/C [15]: 102 % of control | T/C [16]: 103 % of control | T/C [17]: 96 % of control
